Like-named read-outs stand apart in the source and are kept apart here.
Tests used:
H-322 Lung Carcinoma = test: Cytotoxicity (growth inhibition), H-322
Source text: (§1) The value of the ratio Ti/Pt represents the relative activity of TPE as compared with that of cis-platinum.
(§2) The excipient can serve as an agent for promoting absorption of the medicament by the body or as formulation auxiliary, sweetener, flavouring agent, colourant or preservative. […] The novel titanocene derivatives, according to the present invention, can be prepared from common chemical reagents using standard equipment. It should be realized, that the Examples for their preparations presented hereinafter are only for illustration and many other routes may be conceived for their syntheses.

P-388 Mouse Leukemia = test: Cytotoxicity (growth inhibition), P-388
Source text: as §1, §2

tumor = details: prior art; cited from earlier work
NHDF Normal Human Skin = test: Cytotoxicity (growth inhibition), NHDF
Source text: as §1, §2

UCLA-P3 Lung Carcinoma = test: Cytotoxicity (growth inhibition), UCLA-P3
Source text: as §1, §2

[1] = tested on: CHO Chinese Hamstead Ovary; test: Cytotoxicity (growth inhibition), CHO
Source text: as §1, §2

[2] = tested on: Ovcar-3 Ovarian Carcinoma; test: Cytotoxicity (growth inhibition), Ovcar-3
Source text: as §1, §2

[3] = tested on: Capan 1 Pancreas Carcinoma; test: Cytotoxicity (growth inhibition), Capan 1
Source text: as §1, §2

Molt-4 T-cell Leukemia = test: Cytotoxicity (growth inhibition), Molt-4; details: for cytotoxicity (log.): molt-4 cells
Source text: as §1, §2

SK-Mel-28 Melanoma = test: Cytotoxicity (growth inhibition), SK-Mel-28
Source text: as §1, §2

MCF-7 Breast Cancer = test: Cytotoxicity (growth inhibition), MCF-7
Source text: as §1, §2

HL-60 B-cell Leukemia = test: Cytotoxicity (growth inhibition), HL-60
Source text: as §1, §2

[4] = tested on: HMEC Normal Human Mammary; test: Cytotoxicity (growth inhibition), HMEC
Source text: as §1, §2

[5] = tested on: NHEK Normal Keratino Epithelial; test: Cytotoxicity (growth inhibition), NHEK
Source text: as §1, §2

HT-29 Colon Carcinoma = test: Cytotoxicity (growth inhibition), HT-29
Source text: as §1, §2

titanocene dichloride [TDC, reference compound]
IC50 (H-322 Lung Carcinoma; read-out: IC50 (cytotoxic data), H-322): 1000 µM | IC50 (P-388 Mouse Leukemia; read-out: IC50 (cytotoxic data), P-388): 500 µM | anti-tumor activity (tumor): very reactive anti-tumor reagent | CC50 (NHDF Normal Human Skin; read-out: IC50 (cytotoxic data), NHDF): 1000 µM | IC50 (UCLA-P3 Lung Carcinoma; read-out: IC50 (cytotoxic data), UCLA-P3): 1000 µM | IC50 ([1]; read-out: IC50 (cytotoxic data), CHO): 1000 µM | IC50 ([2]; read-out: IC50 (cytotoxic data), Ovcar-3): 1000 µM | IC50 ([3]; read-out: IC50 (cytotoxic data), Capan 1): 500 µM | IC50 (Molt-4 T-cell Leukemia; read-out: IC50 (cytotoxic data), Molt-4): 1000 µM | IC50 (SK-Mel-28 Melanoma; read-out: IC50 (cytotoxic data), SK-Mel-28): 1000 µM | IC50 (MCF-7 Breast Cancer; read-out: IC50 (cytotoxic data), MCF-7): 1000 µM | IC50 (HL-60 B-cell Leukemia; read-out: IC50 (cytotoxic data), HL-60): 1000 µM | CC50 ([4]; read-out: IC50 (cytotoxic data), HMEC): 130 µM | CC50 ([5]; read-out: IC50 (cytotoxic data), NHEK): 1000 µM | IC50 (HT-29 Colon Carcinoma; read-out: IC50 (cytotoxic data), HT-29): 500 µM

COC(=O)c1ccc([O-])cc1.COC(=O)c1ccc([O-])cc1.[Ti+4].c1cc[cH-]c1.c1cc[cH-]c1 [TPE, Bis(4-methoxycarbonylphenolato)bis(n^5-cyclopentadienyl)titanium(IV)]
ratio Ti/Pt (H-322 Lung Carcinoma; H-322, relative activity of TPE as compared with cis-platinum): 100 | IC50 (H-322 Lung Carcinoma; h-322 cells): 0.63 µM | cytotoxicity (log.) (H-322 Lung Carcinoma; h-322 cells): -6.20 log. (M) | IC50 (P-388 Mouse Leukemia; p-388 cells): 3.9 µM | cytotoxicity (log.) (P-388 Mouse Leukemia; p-388 cells): -5.41 log. (M) | ratio Ti/Pt (NHDF Normal Human Skin; NHDF, relative activity of TPE as compared with cis-platinum): 20 | CC50 (NHDF Normal Human Skin; human, nhdf cells): 1.6 µM | cytotoxicity (log.) (NHDF Normal Human Skin; human, nhdf cells): -5.41 log. (M) | ratio Ti/Pt (UCLA-P3 Lung Carcinoma; UCLA-P3, relative activity of TPE as compared with cis-platinum): 20 | IC50 (UCLA-P3 Lung Carcinoma; ucla-p3 cells): 3.1 µM | cytotoxicity (log.) (UCLA-P3 Lung Carcinoma; ucla-p3 cells): -5.51 log. (M) | ratio Ti/Pt ([1]; CHO, relative activity of TPE as compared with cis-platinum): 2 | IC50 ([1]; cho cells): 13 µM | cytotoxicity (log.) ([1]; cho cells): -4.80 log. (M) | ratio Ti/Pt ([2]; Ovcar-3, relative activity of TPE as compared with cis-platinum): 10 | IC50 ([2]; ovcar-3 cells): 6.3 µM | cytotoxicity (log.) ([2]; ovcar-3 cells): -5.20 log. (M) | ratio Ti/Pt ([3]; Capan 1, relative activity of TPE as compared with cis-platinum): 10 | IC50 ([3]; capan 1 cells): 0.39 µM | cytotoxicity (log.) ([3]; capan 1 cells): -6.41 log. (M) | ratio Ti/Pt (Molt-4 T-cell Leukemia; Molt-4, relative activity of TPE as compared with cis-platinum): 10 | cytotoxicity (log.) (Molt-4 T-cell Leukemia): -6.00 log. (M) | ratio Ti/Pt (SK-Mel-28 Melanoma; SK-Mel-28, relative activity of TPE as compared with cis-platinum): 10 | IC50 (SK-Mel-28 Melanoma; sk-mel-28 cells): 1.6 µM | cytotoxicity (log.) (SK-Mel-28 Melanoma; sk-mel-28 cells): -5.41 log. (M) | ratio Ti/Pt (MCF-7 Breast Cancer; MCF-7, relative activity of TPE as compared with cis-platinum): 100 | IC50 (MCF-7 Breast Cancer; mcf-7 cells): 2 µM | cytotoxicity (log.) (MCF-7 Breast Cancer; mcf-7 cells): -5.70 log. (M) | ratio Ti/Pt (HL-60 B-cell Leukemia; HL-60, relative activity of TPE as compared with cis-platinum): 2 | IC50 (HL-60 B-cell Leukemia; hl-60 cells): 3.1 µM | cytotoxicity (log.) (HL-60 B-cell Leukemia; hl-60 cells): -5.70 log. (M) | ratio Ti/Pt ([4]; HMEC, relative activity of TPE as compared with cis-platinum): 20 | CC50 ([4]; human, hmec cells): 3.1 µM | cytotoxicity (log.) ([4]; human, hmec cells): -5.70 log. (M) | ratio Ti/Pt ([5]; NHEK, relative activity of TPE as compared with cis-platinum): 200 | CC50 ([5]; human, nhek cells): 3.1 µM | cytotoxicity (log.) ([5]; human, nhek cells): -5.51 log. (M) | ratio Ti/Pt (HT-29 Colon Carcinoma; HT-29, relative activity of TPE as compared with cis-platinum): 200 | IC50 (HT-29 Colon Carcinoma; ht-29 cells): 3.9 µM | cytotoxicity (log.) (HT-29 Colon Carcinoma; ht-29 cells): -5.41 log. (M)

COCCOCCOC(=O)c1ccc([O-])cc1.COCCOCCOC(=O)c1ccc([O-])cc1.[Ti+4].c1cc[cH-]c1.c1cc[cH-]c1 [TEG, Bis[4-(2-(2-methoxyethoxy)ethoxy]carbonylphenolato]bis(n^5-cyclopentadienyl)titanium(IV)]
cytotoxicity (log.) ([2]; ovcar-3 cells): -4.00 log. (M) | cytotoxicity (log.) (Molt-4 T-cell Leukemia): -4.00 log. (M)

COCCOC(=O)c1ccc([O-])cc1.COCCOC(=O)c1ccc([O-])cc1.[Ti+4].c1cc[cH-]c1.c1cc[cH-]c1 [TMEM, Bis[4-(2-methoxy)ethoxycarbonylphenolato]bis(n^5-cyclopentadienyl)titanium(IV)]
cytotoxicity (log.) (H-322 Lung Carcinoma; h-322 cells): -4.89 log. (M) | cytotoxicity (log.) (NHDF Normal Human Skin; human, nhdf cells): -4.30 log. (M) | cytotoxicity (log.) ([1]; cho cells): -4.30 log. (M) | cytotoxicity (log.) ([2]; ovcar-3 cells): -4.60 log. (M) | cytotoxicity (log.) ([3]; capan 1 cells): -4.89 log. (M) | cytotoxicity (log.) (Molt-4 T-cell Leukemia): -7.00 log. (M) | cytotoxicity (log.) (SK-Mel-28 Melanoma; sk-mel-28 cells): -4.60 log. (M) | cytotoxicity (log.) (MCF-7 Breast Cancer; mcf-7 cells): -4.89 log. (M) | cytotoxicity (log.) (HL-60 B-cell Leukemia; hl-60 cells): -4.60 log. (M) | cytotoxicity (log.) ([4]; human, hmec cells): -4.60 log. (M) | cytotoxicity (log.) (HT-29 Colon Carcinoma; ht-29 cells): -4.60 log. (M)

CCOC(=O)c1ccc([O-])cc1.CCOC(=O)c1ccc([O-])cc1.[Ti+4].c1cc[cH-]c1.c1cc[cH-]c1 [TEE-1, Bis(4-ethoxycarbonylphenolato)bis(n^5-cyclopentadienyl)titanium(IV)]
cytotoxicity (log.) (H-322 Lung Carcinoma; h-322 cells): -5.80 log. (M) | cytotoxicity (log.) (P-388 Mouse Leukemia; p-388 cells): -4.89 log. (M) | cytotoxicity (log.) (NHDF Normal Human Skin; human, nhdf cells): -4.89 log. (M) | cytotoxicity (log.) (UCLA-P3 Lung Carcinoma; ucla-p3 cells): -5.20 log. (M) | cytotoxicity (log.) ([1]; cho cells): -4.60 log. (M) | cytotoxicity (log.) ([2]; ovcar-3 cells): -5.20 log. (M) | cytotoxicity (log.) ([3]; capan 1 cells): -5.51 log. (M) | cytotoxicity (log.) (Molt-4 T-cell Leukemia): -7.00 log. (M) | cytotoxicity (log.) (SK-Mel-28 Melanoma; sk-mel-28 cells): -5.51 log. (M) | cytotoxicity (log.) (MCF-7 Breast Cancer; mcf-7 cells): -5.80 log. (M) | cytotoxicity (log.) (HL-60 B-cell Leukemia; hl-60 cells): -5.51 log. (M) | cytotoxicity (log.) ([4]; human, hmec cells): -6.11 log. (M) | cytotoxicity (log.) ([5]; human, nhek cells): -5.80 log. (M) | cytotoxicity (log.) (HT-29 Colon Carcinoma; ht-29 cells): -5.20 log. (M)

C[N+](C)(C)CCOC(=O)c1ccc([O-])cc1.C[N+](C)(C)CCOC(=O)c1ccc([O-])cc1.[Ti+4].c1cc[cH-]c1.c1cc[cH-]c1 [TCE, Bis[4-(2-trimethylammono)ethoxycarbonylphenolato]bis(n^5-cyclopentadienyl)titanium(IV)]
cytotoxicity (log.) (H-322 Lung Carcinoma; h-322 cells): -4.00 log. (M) | cytotoxicity (log.) ([2]; ovcar-3 cells): -4.00 log. (M) | cytotoxicity (log.) ([3]; capan 1 cells): -4.00 log. (M) | cytotoxicity (log.) (Molt-4 T-cell Leukemia): -4.00 log. (M) | cytotoxicity (log.) (MCF-7 Breast Cancer; mcf-7 cells): -4.30 log. (M) | cytotoxicity (log.) (HT-29 Colon Carcinoma; ht-29 cells): -4.00 log. (M)
